Test results published in publication PMC7828731, “Anti-Aging Potential of Extracts from Washingtonia filifera Seeds” (Plants, 2021).
≈ marks a conversion by molar mass, not a printed value.

Target: T1, Collagenase from Clostridium histolyticum
T1 construct: gene colG; commercial native collagenase (Sigma)
Assay: absorbance at […] nm, FALGPA hydrolysis
Type: biochemical, Hathewaya histolytica
Conditions: FALGPA 0.8 mM; 0.05 M Tricine, pH 7.5, 0.4 M NaCl, 0.01 M CaCl2; 15 min preincubation

Structure (SMILES): O=C(O[C@@H]1Cc2c(O)cc(O)cc2O[C@@H]1c1cc(O)c(O)c(O)c1)c1cc(O)c(O)c(O)c1 [Epigallocatechin gallate]
- IC50 (μg/mL) / Collagenase *: 120.8 ± 6.22 µg/mL (≈ 264 µM)
